Measured values from patent US20190008810A1, “METHOD FOR PREVENTION, TREATMENT AND ALLEVIATION OF INFECTIOUS DISEASES AND DISORDERS” (REPLICON HEALTH OY, priority 2016, published 2019).

Columns and labels:
[1] = tested on: seasonal flu or similar infectious disease; type: in vivo, human
[2] = tested on: bacterial and/or virus infection of respiratory tract; assay: Healing from more severe respiratory tract infection in S1, Example 1d; type: in vivo, human
From the text: Clear symptoms of bacterial and/or virus infection in S1 had started 7 days earlier. Original cause of the disease can also be acquired earlier, i.e. it can have been some hiding pathogen like tuberculosis bacteria that exploits tempting opportunities to attack the body when its defenses are weakened by some physical and/or mental stress (in this case stress could have been also positive stress from overly active days). […] On Friday, they were in an activity theme park with the family and next day, on Saturday they drove for 2 hours to a birthday party lasting to Sunday morning hours, and finally on Sunday visited museum that required 500 km of extra driving there and back. Next day, i.e. on Monday morning, the initiation of infectious condition was felt very clearly.
On Friday afternoon, fever had risen to 37.40 Celsius that is relatively high fever for S1 whose normal temperature is 36.60 Celsius (C) in rest during the day. Fever remained at 37.40 C until the night. During Saturday, the disease and related fever continued. On Sunday morning, temperature was slightly elevated (36.58 C) compared to the normal morning temperature (36.2-36.4 C). Otherwise the general condition was good on this Sunday morning but during the day fever again rose to 37.15 C by the afternoon and the symptoms in respiratory tract got more severe, resembling intensifying bronchitis or similar inflammatory condition.
By Sunday afternoon it started to seem evident that the immune system of S1 (even assisted by almost perfect rest for 3 days already) would not be able to provide a fast resolution to the potentially serious infectious condition. The Double and the Local Enforcements should be started as soon as possible. (Note: acute fever responses, presented in FIG. 5 and FIG. 11 for S1 have been observed from following administrations of D-glyceric acid in water and calcium salt dehydrate.)
At 12:41 S1 took 2×250 mg of D-glyceric acid calcium salt mixed into water to initiate the DGA Activation. At 0715 pm S1 took 2×180 mg of D-glyceric acid calcium salt mixed into water to keep the DGA Activation alive.

[3] = tested on: primary human hepatocytes; assay: Net ROS generation in human primary hepatocytes; type: cell-based; conditions: donors
Method: D-glycerate is coded as RH013001 in the graph. […] ARE -activation happens when Nrf2 detaches from cytosolic KEAP1 enzyme and moves to nucleus (SCHEME B).
FIG. 13b: Gene Expression results from Primary Hepatocytes after 48 h+2 h of the DGA Activation vs. 0-control. […] Combined test for PGC-1a yielded P-value of some 10%. Primary human hepatocytes were purchased from Celsis In Vitro Technologies (1450 South Rolling Road Baltimore, Md. 21227, USA). Primary hepatocytes were received from three different post mortem human donators. […] This is also the case for DOO.

[4] = tested on: CRP; assay: Blood CRP in healthy mice, 4-day test; type: in vivo; conditions: 65 mg/kg/day in chow, 4 days, N=8; pairwise one-sided t-test p-value=0.04
Method: (§1) In this Example, CRP results from 3 separate preclinical tests are presented and analyzed. First 4-day CRP test was conducted with 8 healthy mice using individuals as their own controls. Second 7-day CRP test was conducted in discontinuous disease model. And third also 7-day CRP test was conducted in continuous disease model. CRP present in mouse serum samples were analyzed using mouse CRP ELISA kit (GWB-3B960E, Genway Biotech Inc.). All blood samples were collected at the same time of the day.
For evaluating possible effect of the DGA Activation in health, a 4-day test with healthy mice in Charles River Labs, Kuopio test facilities were conducted. In this test (prior initiation of the MPTP -model) the DGA was mixed into chow at the concentration of 65 mg/kg/day.

[5] = tested on: CRP; assay: Blood CRP in discontinuous MPTP/PD disease model; type: in vivo, mice
Method: as §1
In two other CRP tests, the effect of the DGA Activation in two disease models, continuous vs. discontinuous was analyzed. In FIG. 4b, results from discontinuous MPTP/PD disease model, and in FIG. 4c, results from continuous IPA/Dry Eye disease model. Logarithmic change of blood CRP during the 7-day disease follow up period of each mouse in all groups was calculated and the averages are presented in FIGS. 4b and 4c. (In both disease models, there was a 4-day priming with 50% DGA dose before activating the disease model and CRP test.)
Brief description of the disease models: 1) continuous IPA -model (see Example 1a) and 2) discontinuous MPTP/PD -model. MPTP (1-methyl-4-phenyl-1,2,3,6-tetrahydropyridine) is a neurotoxin precursor to MPP+, which causes symptoms of Parkinson's disease (PD). […] Diet consumption per cage is monitored carefully before and during the study follow-up period. […]

[6] = 3-week safety feeding study with 80 rats; type: in vivo; conditions: three doses mixed into chow, 3 weeks; highest more than 100 times human doses
Method: Before initiating any clinical tests full proof of safety was received from 3 week in vivo feeding experiments with rats. This 3-week safety study with 80 rats was conducted in Finnish National Institute of Health with three different D-glyceric acid doses mixed into chow. […] Highest doses with rats in the safety study were more than 100 times the doses used for humans in any of the shorter tests presented here.

[7] = tested on: ethanol-dosed gastric cells; conditions: in vitro study, Habe et al.; cited from earlier work

With `O=C(O)[C@H](O)CO` [DGA, D-glyceric acid] the “time to alleviation of all symptoms of two-week long infection” value ([1]; S1) was 24 h, the “time to visible alleviation” value ([1]; S1) was 12 to 24 h and the “body temperature (fever)” value ([1]; S1, Monday 0130 pm after 2 doses of 3×200 mg Sunday night and 2×200 mg Monday morning, 37.0 on Sunday) was 36.62 celcius. The body temperature ([1]; S1, Monday 0700 pm) was 36.61 celcius, the “time until prolonged mild disease state disappeared” value ([1]; human, in vivo) was 2 days and the “body temperature, highest during workday” value ([2]; S1, Monday) was 36.87 C. For the same compound, the body temperature ([2]; S1, Monday 0630 am) was 36.38 C, the body temperature ([2]; S1, Monday 0900 pm) was 36.71 C and the body temperature ([2]; S1, Monday 1036 pm) was 36.68 C. It also gave a body temperature ([2]; S1, Sunday 07:10 pm, before second dose) of 36.60 C, a body temperature ([2]; S1, Sunday 0648 pm after 2×250 mg at 12:41, 37.15 C before) of 36.58 C and a body temperature ([2]; S1, Sunday 0652 pm) of 36.52 C. For the same compound, the body temperature ([2]; S1, Sunday 1015 pm) was 36.60 C, the body temperature ([2]; S1, Sunday 1035 pm) was 36.61 C and the “net ROS generation” value [3] was “declined for both JGM and CDP statistically very significantly”. For the same compound, the “blood CRP vs own starting level” value [4] was “overall decline in CRP was statistically significant”, the “survival and health parameters” value ([5]; 4+7-day administration) was “improved survival and health parameters” and the “blood CRP change vs 0-control” value ([5]; 7-day follow up after 4-day priming, p-value=0.015, pairwise p-value=0005) was “declined statistically significantly”. For the same compound, the “adverse health effects (feed intake, body weight development)” value [6] was “No adverse health effects were noticed” and the “viability of ethanol-dosed gastric cells” value [7] was “can increase viability of ethanol-dosed gastric cells”.
